According to US20040110732A1, “Pharmaceutical composition for transdermal or transmucosal administration comprising at least one progestin and/or at least one oestrogen, process for preparing it and uses thereof” (BESINS INTERNATIONAL BELGIQUE, priority 2002, published 2004):

Assay: In vitro percutaneous absorption of 3H estradiol in Franz-type diffusion cells
Description: The in vitro percutaneous absorption was studied quantitatively on biopsies of dermatomed human ventral skin, placed in a 1.77 cm^2 Franz static diffusion cell, which allows the dermis to be placed in contact with a survival liquid into which the substance absorbed through the skin will be dosed. The survival liquid consists of a solution of 9 g/L sodium chloride supplemented with 15 g/L of serum albumin. The cells are placed under ambient atmosphere and thermostatically maintained at 37° C. 10 μl of preparation are applied to the entire surface of the epidermis circumscribed by the glass cylinder. During the experiment, samples of the survival liquid are taken at times 2 h, 4 h, 6 h, 8 h and 24 h. For each time, the survival liquid taken is replaced with fresh liquid.

cumulative absorption at 24 hours of estradiol (control of the ethylglycolic acid test: aqueous-alcoholic estradiol 0.06% solution without hydroxy acid): 5.26%±1.26%
percutaneous absorption of estradiol (control of the glycolic acid test: aqueous-alcoholic estradiol 0.06% solution without hydroxy acid): 6.96%±2.95%
percutaneous absorption of estradiol at 24 hours (control of the lactic acid test: aqueous-alcoholic solution of estradiol 0.06%, 50% absolute alcohol, no hydroxy acid): 5.50%±1.76%
cumulative absorption at 24 hours of estradiol (ethylglycolic acid at 5%, estradiol 0.06%): 8.90%±1.29%
percutaneous absorption of estradiol (glycolic acid at 5% in aqueous-alcoholic solution containing 40% absolute ethanol, estradiol 0.06%): 17.73%±2.96%
flows between 8 and 24 hours (lactic acid at 5% in 50% ethanol solution, compared with the control): significantly increasing
percutaneous absorption of estradiol at 24 hours (lactic acid at 5% in aqueous-alcoholic solution containing 50% ethanol, estradiol 0.06%): 13.80%±6.78%
Structure (SMILES): C[C@]12CC[C@@H]3c4ccc(O)cc4CC[C@H]3[C@@H]1CC[C@@H]2O [estradiol, 17β-estradiol]
